Data from US20080207614A1, “QUINAZOLINE DERIVATIVES FOR THE TREATMENT AND PREVENTION OF DIABETES AND OBESITY” (SK CHEMICALS CO., LTD., priority 2004, published 2008).

The compounds below were run on C2C12 muscle cells (assay: Analysis of glucose absorption (2-deoxyglucose) in differentiated C2C12 muscle cells). Conditions: test materials 10 μM, times relative to control group.
Format: cell-based
Summary of the method: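 Uptake of 0.2 μCi 2-deoxyglucose over 20 min, counted radiometrically in lysed cells. Before tracer, compounds (10 μM) were applied for 30 min to C2C12 cells differentiated 6 days in 1% serum and equilibrated 3 h in 5 mM glucose KRB.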
For COc1ccc(CNc2nc(-c3ccccn3)nc3ccccc23)cc1 [Compound 225, (4-Methoxybenzyl)-(2-pyridino-2-ylquinazolino-4-yl)-amine], the Glucose absorption was 1.3. Fc1cccc(CNc2nc(-c3ccccn3)nc3ccccc23)c1 [Compound 231, (3-Fluorobenzyl)-(2-pyridino-2-ylquinazolino-4-yl)-amine] showed a Glucose absorption of 1.2. With Fc1cccc(CCNc2nc(-c3ccccn3)nc3ccccc23)c1 [Compound 232, [2-(3-Fluorophenyl)-ethyl]-(2-pyridino-2-ylquinazolino-4-yl)-amine] the Glucose absorption was 1.2. For OCCOCCNc1nc(-c2ccccn2)nc2ccccc12 [Compound 233, 2-[2-(2-Pyridino-2-ylquinazolino-4-ylamino)-ethoxy]-ethanol], the Glucose absorption was 1.4. OCCNc1nc(-c2ccccn2)nc2ccccc12 [Compound 234, 2-(2-Pyridino-2-ylquinazolino-4-ylamino)-ethanol] gave a Glucose absorption of 1.1. For c1ccc(CNc2nc(-c3cccnc3)nc3ccccc23)cc1 [Compound 235, Benzyl-(2-pyridino-3-ylquinazolino-4-yl)-amine], the Glucose absorption was 1.2. For COc1cccc(CNc2nc(-c3cccnc3)nc3ccccc23)c1 [Compound 236, (3-Methoxybenzyl)-(2-pyridino-3-ylquinazolino-4-yl)-amine], the Glucose absorption was 1.2. Work on COc1ccc(CNc2nc(-c3cccnc3)nc3ccccc23)cc1 [Compound 237, (4-Methoxybenzyl)-(2-pyridino-3-ylquinazolino-4-yl)-amine] yielded a Glucose absorption of 0.9. For FC(F)(F)c1cccc(CNc2nc(-c3cccnc3)nc3ccccc23)c1 [Compound 238, (2-Pyridino-3-ylquinazolino-4-yl)-(3-trifluoromethylbenzyl)-amine], the Glucose absorption was 1.0. c1ccc(CCNc2nc(-c3cccnc3)nc3ccccc23)cc1 [Compound 239, Phenethyl-(2-pyridino-3-ylquinazolino-4-yl)-amine] gave a Glucose absorption of 0.5. c1ccc(CCCCNc2nc(-c3cccnc3)nc3ccccc23)cc1 [Compound 240, (4-Phenylbutyl)-(2-pyridino-3-ylquinazolino-4-yl)-amine] gave a Glucose absorption of 1.0. For c1cncc(-c2nc(NCc3cccc4ccccc34)c3ccccc3n2)c1 [Compound 241, Naphthaleno-1-ylmethyl-(2-pyridino-3-ylquinazolino-4-yl)-amine], the Glucose absorption was 1.2. For c1cncc(-c2nc(NCc3ccc4c(c3)OCO4)c3ccccc3n2)c1 [Compound 242, Benzo[1,3]dioxol-5-ylmethyl-(2-pyridino-3-ylquinazolino-4-yl)-amine], the Glucose absorption was 0.9. Work on Fc1cccc(CNc2nc(-c3cccnc3)nc3ccccc23)c1 [Compound 243, (3-Fluorobenzyl)-(2-pyridino-3-ylquinazolino-4-yl)-amine] yielded a Glucose absorption of 1.4. Fc1cccc(CCNc2nc(-c3cccnc3)nc3ccccc23)c1 [Compound 244, [2-(3-Fluorophenyl)-ethyl]-(2-pyridino-3-ylquinazolino-4-yl)-amine] was tested, and the Glucose absorption was 0.4. With OCCOCCNc1nc(-c2cccnc2)nc2ccccc12 [Compound 245, 2-[2-(2-Pyridino-3-ylquinazolino-4-ylamino)-ethoxy]-ethanol] the Glucose absorption was 1.2. OCCNc1nc(-c2cccnc2)nc2ccccc12 [Compound 246, 2-(2-Pyridino-3-ylquinazolino-4-ylamino)-ethanol] was tested, and the Glucose absorption was 1.2. Compound c1ccc(CNc2nc(-c3ccncc3)nc3ccccc23)cc1 [Compound 247, Benzyl-(2-pyridino-4-ylquinazolino-4-yl)-amine] has a Glucose absorption of 1.3. Compound COc1cccc(CNc2nc(-c3ccncc3)nc3ccccc23)c1 [Compound 248, (3-Methoxybenzyl)-(2-pyridino-4-ylquinazolino-4-yl)-amine] has a Glucose absorption of 1.4. Compound COc1ccc(CNc2nc(-c3ccncc3)nc3ccccc23)cc1 [Compound 249, (4-Methoxybenzyl)-(2-pyridino-4-ylquinazolino-4-yl)-amine] has a Glucose absorption of 0.9.
